The record followed here is patent US8101622B2, “Pyridopyrimidinone inhibitors of PI3Kα and mTOR” (Exelixis, Inc., priority 2008, dated 2012).

For series [1], the target named is mTOR/GbL/Raptor (mTORC1) (Homo sapiens, UniProt P42345). Briefly: mTOR/GbL/Raptor (mTORC1) ELISA assay. It is filed as biochemical. Particulars: mTORC1, 10 μM ATP, 4E-BP1 substrate. Here is the method: mTOR/GbL/Raptor (mTORC1) ELISA Assay
The measurement of mTORC1 enzyme activity was performed in an ELISA assay format following the phosphorylation of 4E-BP1 protein. All experiments were performed in the 384-well format. Generally, 0.5 μL DMSO containing varying concentrations of the test compound was mixed with 15 μL enzyme solution. Kinase reactions were initiated with the addition of 15 μL of substrates-containing solution. The assay conditions were as follows; 0.2 nM mTORC1, 10 μM ATP and 50 nM NHis-tagged 4E-BP1 in 20 mM Hepes, pH 7.2, 1 mM DTT, 50 mM NaCl, 10 mM MnCl2, 0.02 mg/mL BSA, 0.01% CHAPS, 50 mM ([…]. Following an incubation of 120 minutes at ambient temperature, 20 μL of the reaction volume was transferred to a Ni-Chelate-coated 384-well plate. The binding step of the 4E-BP1 protein proceeded for 60 minutes, followed by washing 4 times each with 50 μL of Tris-buffered saline solution (TBS). Anti-phospho-4E-BP1 rabbit-IgG (20 μL, 1:5000) in 5% BSA-TBST (0.2% Tween-20 in TBS) was added and further incubated for 60 minutes. Incubation with a secondary HRP-tagged anti-IgG was similarly performed after washing off the primary antibody (4 washes of 50 μL). Following the final wash step with TBST, 20 μL of SuperSignal ELISA Femto (Pierce Biotechnology) was added and the luminescence measured using an EnVision plate reader.
(In general: ELISA stands for enzyme-linked immunosorbent assay.)

The target of series [2] is PI3Kβ (Homo sapiens, UniProt P42338). As to the kind of experiment: PI3K luciferase-coupled chemiluminescence assay (PI3Kβ in place of PI3Kα). It is filed as biochemical. Particulars: second value of cell 'P13K-α, β'. The procedure: (§1) PI3K Luciferase-Coupled Chemiluminescence Assay Protocol
(§2) PI3Kα activity is measured as the percent of ATP consumed following the kinase reaction using luciferase-luciferin-coupled chemiluminescence. Reactions were conducted in 384-well white, medium binding microtiter plates (Greiner). Kinase reactions were initiated by combining test compounds, ATP, substrate (PIP2), and kinase in a 20 μL volume in a buffer solution. The standard PI3Kalpha assay buffer is composed 50 mM Tris, pH 7.5, 1 mM EGTA, 10 mM MgCl2, 1 mM DTT and 0.03% CHAPS. The standard assay concentrations for enzyme, ATP, and substrate are 1.5 nM, 1 μM, and 10 μM, respectively. The reaction mixture was incubated at ambient temperature for approximately 2 h. Following the kinase reaction, a 10 μL aliquot of luciferase-luciferin mix (Promega Kinase-Glo) was added and the chemiluminescence signal measured using a Victor2 plate reader (Perkin Elmer). Total ATP consumption was limited to 40-60% and IC50 values of control compounds correlate well with literature references. PI3Kα can be replaced with PI3Kβ, PI3Kδ, or PI3Kγ to determine the compound's activity for the other isoforms of PI3K.

Series [3] has as its target PI3Kα (Homo sapiens, UniProt P42336). As to the kind of experiment: PI3K luciferase-coupled chemiluminescence assay (PI3Kα). In kind it is biochemical. Particulars: first value of cell 'P13K-α, β'; 1 μM ATP, 10 μM PIP2. The procedure:
as §1, §2

Series [4] has as its system pS6 (S240/S244) PC-3 cell line. Briefly: pS6 (S240/244) ELISA assay in PC-3 cells. It is filed as cell-based, human. Particulars: 3 h compound, ratio pS6 to total S6. Here is the method:
PC-3 and MCF-7 cells (both from ATCC) were seeded at 8×10^3 cells per well in 96-well plates (Corning, 3904) in DMEM (Cellgro) containing 10% FBS (Cellgro), 1% NEAA (Cellgro) and 1% penicillin-streptomycin (Cellgro). Two plates were prepared for cell fixation ELISA, one for pS6 (S240/244) and one for total S6. Cells were incubated at 37° C., 5% CO2 for 48 h, and the growth medium was replaced with serum-free DMEM. Serial dilutions of the test compound in 0.3% DMSO (vehicle) were added to the cells and incubated for 3 h. To fix the cells, medium was removed and 100 μL/well of 4% formaldehyde (Sigma Aldrich, F8775) in TBS (20 mM Tris, 500 mM NaCl) was added to each well at RT for 30 min. Cells were washed 3 times with 200 μL TBS containing 0.1% Tween20 (Bio-Rad, catalog #170-6351) (TBST), and quenched with 100 μL 0.6% H2O2 (VWR International, catalog #VW3742-1) in TBST for 30 min at RT. Plates were washed 3 times with 200 μL TBST and blocked with 100 μL 5% BSA (Jackson ImmunoResearch, 001-000-173) in TBST for 1 h at RT. Anti-pS6 (S240/244) antibody (Cell Signaling Technology, 2215) and anti-total-S6 antibody (Cell Signaling Technology, 2217) were diluted 1/500 in 5% BSA in TBST, and 50 μL of either primary antibody solution was added to one plate to detect pS6 or total S6. After incubation overnight at 4° C., plates were washed 4 times with 200 μL TBST. Goat anti-rabbit secondary antibody (Jackson ImmunoResearch, catalog #111-035-003) was diluted at 1/15000 in 5% BSA in TBST. 100 μL of antibody solution was added to each well and incubated for 1 h at RT. Plates were washed 3 times with 200 μL TBST and 2 times with 200 μL TBS. Chemiluminescent substrate (Super Signal Elisa Femto Chemiluminescent Substrate; Pierce, 37075) was prepared at RT. One-hundred μL of chemiluminescent substrate per well was added and then the plate was shaken for 1 min. Luminescence was read immediately on a Wallac plate reader. IC50 values were determined based on the ratio of pS6 to total S6 signal for compound treated wells, normalized to the DMSO-treated control wells.

In series [5] the test system is PC-3 cells. As to the kind of experiment: PC-3 2 day BrdU cell proliferation assay. It is filed as cell-based, human. Here is the method:
(§3) MCF-7 and PC-3 2 Day BrdU Cell Proliferation Assay
(§4) MCF-7 (ATCC) and PC-3 (ATCC) cells were seeded onto 96-well plates (Corning, #3904) in their growth medium, DMEM (Cellgro, #10-014-CV)+10% heat-inactivated FBS (Invitrogen)+1% Pen/Strep (Cellgro, #30-002-CI)+1% NEAA (Cellgro, #25-025-CI) at a seeding density of 15000 and 8000 cells/well, respectively. Cells were incubated overnight at 37° C., 5% CO2. Cells were then treated the next day with a serial dilution of compound in its growth medium (containing a final concentration of 0.3% DMSO). Triplicate wells were used for each compound concentration. The control wells received 0.3% DMSO in growth medium. The plates were incubated at 37° C., 5% CO2 for an additional 48 hr. Cells were labeled with BrdU (Roche, #10280879001, 20 μM) for 2-4 hr and then fixed with 70% EtOH+0.1 M NaOH for 30 min at RT. Anti-BrdU-Peroxidase (Roche, #11585860001, 1/2000 in PBS+1% BSA) conjugate was added to the cells, after which the plates were washed 3 times with 1×PBS. Chemiluminescent substrate solution (Pierce, #3707A/B) was added, and the plates were read for luminescence using the Wallac Victor plate reader for 0.1 sec. IC50 values were determined based on cell proliferation with compound treatment compared to the 0.3% DMSO vehicle control.

Series [6] deals with MCF-7 cells. Briefly: MCF-7 2 day BrdU cell proliferation assay. It is filed as cell-based, human. Particulars: MCF-7, 48 hr. Here is the method: as §3, §4
Series [7] can be described thus: Mouse microsomal oxidation assay. Particulars: 15 μM compound, 0.5 mg/mL microsomal protein, 1 mM NADPH, 37° C., 30 min; +/−10% equivalent to little or no oxidation. It is filed as in vitro ADME. Here is the method: Mouse Microsomal Oxidation Assay
Microsomal oxidation of test compounds in the presence of mouse liver microsomal fractions was conducted in 96-well microtiter plates. Liver microsomal preparations were purchased from BD Gentest (Cat #452701). Test compounds were incubated in duplicate at 37° C. for 30 min in the presence of liver microsomes and NADPH. Reaction mixtures (75 μL) contained a final concentration of 15 μM test compound, 0.15% DMSO, 0.5 mg/mL microsomal protein and 1 mM NADPH in 100 mM potassium phosphate, pH 7.4 buffer. Control incubations contained the full complement of enzyme and substrate but no NADPH added. All test-sets included reference CYP450 substrates to verify assay performance. Reactions were terminated by the addition of 150 μL acetonitrile containing 0.1% formic acid. The concentration of the test compound remaining was determined by LC/MS/MS analysis on Sciex API-3000 instrument. The % oxidation is determined by the change in peak integration for the test compound (+/−NADPH) relative to the peak integration of internal standard injected with the sample: % oxidation=[((Int. peakcompound, no NADPH/Int. peakstandard)−(Int. peakcompound, NADPH/Int. peakstandard))[…]] Chromatographic separation of analytes was achieved using a Phenomenex Synergi Hydro-RP column (Torrance, Calif.) and a mobile phase consisting of 0.1% formic acid in acetonitrile and 0.1% formic acid in water. A linear gradient from 2-98% acetonitrile was used to elute compounds from the HPLC column. The typical variation (ie, precision) observed in the measurements for a given sample (e.g., multiple injections of the same sample) is ca. 10%, and thus experimental values of +/−10% can be considered to be equivalent to little or no oxidation.

PI3Kβ, sequence (P42338 whole entry, species assumed): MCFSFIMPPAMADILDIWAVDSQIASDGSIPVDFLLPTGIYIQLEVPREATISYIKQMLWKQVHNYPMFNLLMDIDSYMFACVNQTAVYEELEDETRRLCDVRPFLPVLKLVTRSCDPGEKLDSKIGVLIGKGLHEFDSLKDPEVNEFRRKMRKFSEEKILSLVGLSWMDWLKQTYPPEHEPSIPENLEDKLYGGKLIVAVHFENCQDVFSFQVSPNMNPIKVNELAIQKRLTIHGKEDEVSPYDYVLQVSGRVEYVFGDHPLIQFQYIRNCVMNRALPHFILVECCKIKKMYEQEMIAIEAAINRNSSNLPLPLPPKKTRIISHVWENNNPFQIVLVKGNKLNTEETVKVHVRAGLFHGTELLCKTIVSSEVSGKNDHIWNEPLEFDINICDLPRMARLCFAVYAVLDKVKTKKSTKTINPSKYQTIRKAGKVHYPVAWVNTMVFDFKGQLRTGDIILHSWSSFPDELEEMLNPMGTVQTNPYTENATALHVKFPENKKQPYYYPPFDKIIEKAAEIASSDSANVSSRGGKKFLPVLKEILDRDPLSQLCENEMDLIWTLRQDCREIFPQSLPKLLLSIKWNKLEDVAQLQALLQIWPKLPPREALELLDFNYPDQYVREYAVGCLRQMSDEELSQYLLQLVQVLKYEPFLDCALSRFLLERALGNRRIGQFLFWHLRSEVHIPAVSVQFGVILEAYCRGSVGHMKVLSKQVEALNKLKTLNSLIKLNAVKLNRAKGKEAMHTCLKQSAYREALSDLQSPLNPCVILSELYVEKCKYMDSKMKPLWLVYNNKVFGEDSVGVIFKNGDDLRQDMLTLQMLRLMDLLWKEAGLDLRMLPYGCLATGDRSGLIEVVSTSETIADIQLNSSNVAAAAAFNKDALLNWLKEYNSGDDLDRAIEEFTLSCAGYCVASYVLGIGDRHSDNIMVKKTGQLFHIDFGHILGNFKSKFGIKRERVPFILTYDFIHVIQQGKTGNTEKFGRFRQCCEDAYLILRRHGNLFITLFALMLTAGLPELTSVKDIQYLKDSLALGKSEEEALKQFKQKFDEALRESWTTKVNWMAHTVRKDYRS
PI3Kβ, sequence (P27986 whole entry partner, species assumed): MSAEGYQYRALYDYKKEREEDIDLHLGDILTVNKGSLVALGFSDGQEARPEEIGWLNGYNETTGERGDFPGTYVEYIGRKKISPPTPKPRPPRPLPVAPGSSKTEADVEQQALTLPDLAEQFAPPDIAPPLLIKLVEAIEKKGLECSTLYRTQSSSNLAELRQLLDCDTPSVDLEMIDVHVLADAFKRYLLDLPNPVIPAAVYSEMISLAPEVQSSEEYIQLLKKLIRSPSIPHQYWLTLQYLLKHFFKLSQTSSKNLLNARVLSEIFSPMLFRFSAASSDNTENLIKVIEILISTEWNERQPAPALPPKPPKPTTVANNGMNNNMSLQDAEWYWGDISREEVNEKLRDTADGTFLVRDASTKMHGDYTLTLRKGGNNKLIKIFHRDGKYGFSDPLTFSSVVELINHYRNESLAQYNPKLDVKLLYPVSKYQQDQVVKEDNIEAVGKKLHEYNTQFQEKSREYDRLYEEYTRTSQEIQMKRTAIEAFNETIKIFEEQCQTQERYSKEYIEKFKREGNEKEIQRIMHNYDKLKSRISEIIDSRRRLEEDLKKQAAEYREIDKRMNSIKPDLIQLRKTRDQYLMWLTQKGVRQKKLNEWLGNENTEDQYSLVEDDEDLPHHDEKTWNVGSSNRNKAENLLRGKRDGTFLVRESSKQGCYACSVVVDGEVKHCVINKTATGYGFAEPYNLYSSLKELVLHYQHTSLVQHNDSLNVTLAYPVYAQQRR
PI3Kα, sequence (P42336 whole entry): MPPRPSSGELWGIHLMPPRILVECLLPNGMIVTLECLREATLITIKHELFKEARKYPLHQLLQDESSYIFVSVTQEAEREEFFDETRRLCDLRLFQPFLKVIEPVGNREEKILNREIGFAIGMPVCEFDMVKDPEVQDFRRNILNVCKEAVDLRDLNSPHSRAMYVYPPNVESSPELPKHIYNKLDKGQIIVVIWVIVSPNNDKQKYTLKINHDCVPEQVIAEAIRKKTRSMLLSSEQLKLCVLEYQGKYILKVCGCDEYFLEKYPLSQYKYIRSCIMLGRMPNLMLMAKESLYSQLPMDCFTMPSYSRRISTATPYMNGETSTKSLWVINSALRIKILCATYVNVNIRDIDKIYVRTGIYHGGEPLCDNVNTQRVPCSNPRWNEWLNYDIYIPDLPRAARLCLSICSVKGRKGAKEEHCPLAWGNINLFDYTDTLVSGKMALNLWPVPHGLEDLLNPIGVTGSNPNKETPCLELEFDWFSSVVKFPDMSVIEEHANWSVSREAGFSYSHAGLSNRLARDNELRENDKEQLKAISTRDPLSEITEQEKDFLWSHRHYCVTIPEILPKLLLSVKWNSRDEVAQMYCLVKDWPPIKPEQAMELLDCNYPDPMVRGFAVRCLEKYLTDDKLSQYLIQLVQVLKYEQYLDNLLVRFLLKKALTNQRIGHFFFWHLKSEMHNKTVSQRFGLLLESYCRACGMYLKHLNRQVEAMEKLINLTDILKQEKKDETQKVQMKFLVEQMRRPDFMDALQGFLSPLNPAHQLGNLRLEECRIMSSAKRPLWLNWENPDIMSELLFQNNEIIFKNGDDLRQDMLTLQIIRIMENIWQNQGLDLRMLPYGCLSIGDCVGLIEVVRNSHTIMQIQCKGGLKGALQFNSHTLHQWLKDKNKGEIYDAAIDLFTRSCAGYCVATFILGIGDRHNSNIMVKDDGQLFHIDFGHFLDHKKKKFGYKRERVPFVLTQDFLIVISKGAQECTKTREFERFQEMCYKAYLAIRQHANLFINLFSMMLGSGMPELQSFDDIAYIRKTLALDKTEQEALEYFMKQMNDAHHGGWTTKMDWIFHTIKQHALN
PI3Kα, sequence (P27986 whole entry partner): as the sequence (P27986 whole entry partner, species assumed) above

Consider `Cc1nc(N)nc2c1cc(-c1ccc(N)nc1)c(=O)n2[C@H]1CCCOC1`, for which the figures for the IC50 in series [1], in series [2] and in series [3] were 0.003 µM, 0.0608 µM and 0.0073 µM, respectively.
Turning to `Cc1nc(N)nc2c1cc(-c1ccc(N)nc1)c(=O)n2C1CCOCC1`, the IC50 in series [4] (Homo sapiens, PC-3, 3 h) is 0.025 µM; in series [1], 0.0032 µM; in series [5] (Homo sapiens, PC-3, 48 h), 0.28 µM; in series [2], 0.0198 µM; in series [3] it was 0.009 µM; in series [6] (Homo sapiens, MCF7, 48 h), 0.152 µM. Further, the “Mouse Liver Microsome Oxidation (%)” value in series [7] is on record as −7.8%.
Take `COc1ccc(-c2cc3c(C)nc(N)nc3n(C3CCCOC3)c2=O)cn1` (centres unmarked) [reference compound]: the IC50 was determined as 0.0408 µM in series [4] (Homo sapiens, PC-3, 3 h); 0.0068 µM in series [1]; 0.469 µM in series [5] (Homo sapiens, PC-3, 48 h); 0.0068 µM in series [2]; 0.0028 µM in series [3]; 0.218 µM in series [6] (Homo sapiens, MCF7, 48 h). Also, the “Mouse Liver Microsome Oxidation (%)” value in series [7] is 45.6%.
With `Cc1nc(N)nc2c1cc(-c1ccc(N)nc1)c(=O)n2C1CCCOC1` (centres unmarked) [listing 1 of 2 here], the IC50 in series [4] (Homo sapiens, PC-3, 3 h) came to 0.0256 µM; in series [5] (Homo sapiens, PC-3, 48 h), 0.297 µM; in series [6] (Homo sapiens, MCF7, 48 h), 0.151 µM. Besides, the “Mouse Liver Microsome Oxidation (%)” value in series [7] is 6.6%.
Consider `Cc1nc(N)nc2c1cc(-c1ccc(N)nc1)c(=O)n2C1CCCOC1` (centres unmarked) [listing 2 of 2 here], for which the IC50 in series [4] came to 0.0158 µM; in series [1], 0.0026 µM; in series [5] (PC-3, 48 hr), 0.15 µM; in series [2], 0.0521 µM; in series [3], 0.0055 µM; in series [6], 0.0978 µM. The “Mouse Liver Microsome Oxidation (%)” value in series [7] is given as 15.2%.
On to `Cc1nc(N)nc2c1cc(-c1ccc(N(C)C)nc1)c(=O)n2[C@H]1CCCOC1` [reference compound], for which the IC50 amounted to 0.0058 µM in series [1], 0.471 µM in series [2] and 0.0092 µM in series [3].
With `Cc1nc(N)nc2c1cc(-c1ccc(N)nc1)c(=O)n2C1CCOC1` (centres unmarked) [listing 1 of 2 here], the half-inhibitory concentration (IC50) is 0.0185 µM in series [4]; 0.0025 µM in series [1]; 0.497 µM in series [5] (PC-3, 48 hr); 0.034 µM in series [2]; less than 0.0091 µM in series [3]; 0.217 µM in series [6]. In addition, the “Mouse Liver Microsome Oxidation (%)” value in series [7] is −8.2%.
Regarding `Cc1nc(N)nc2c1cc(-c1ccc(N)nc1)c(=O)n2[C@H]1CCOC1`, the results for the IC50 in series [1], in series [2] and in series [3] were 0.0055 µM, 0.0167 µM and 0.0155 µM, respectively.
`Cc1nc(N)nc2c1cc(-c1ccc(N(C)C)nc1)c(=O)n2C1CCCOC1` (centres unmarked) [reference compound] [listing 1 of 2 here]: the IC50 in series [4] (Homo sapiens, PC-3, 3 h) came out at 0.0717 µM; in series [5] (Homo sapiens, PC-3, 48 h), 1.33 µM; in series [6] (Homo sapiens, MCF7, 48 h) it was 0.247 µM. For the same compound, in series [7], the “Mouse Liver Microsome Oxidation (%)” value is 41.3%.
`Cc1nc(N)nc2c1cc(-c1ccc(N(C)C)nc1)c(=O)n2C1CCCOC1` (centres unmarked) [reference compound] [listing 2 of 2 here]: the IC50 came to 0.0962 µM in series [4]; 0.0061 µM in series [1]; 0.741 µM in series [5] (PC-3, 48 hr); 0.205 µM in series [2]; 0.0135 µM in series [3]; 0.151 µM in series [6]. Further, the “Mouse Liver Microsome Oxidation (%)” value in series [7] is listed as 31.2%.
Take `Cc1nc(N)nc2c1cc(-c1ccc(N)nc1)c(=O)n2C1CCOC1` (centres unmarked) [listing 2 of 2 here]: the IC50 was determined as 0.0366 µM in series [4] (Homo sapiens, PC-3, 3 h); 0.401 µM in series [5] (Homo sapiens, PC-3, 48 h); 0.377 µM in series [6] (Homo sapiens, MCF7, 48 h). Also, the “Mouse Liver Microsome Oxidation (%)” value in series [7] worked out at 1.7%.

As a reminder, the IC50 is the concentration that gives 50% inhibition.
